Assay results as given in patent US20230285481A1, “TREATMENT OF CANCER HARBORING MUTATIONS IN THE TP53 GENE AND/OR POST-TRANSLATIONAL MODIFICATIONS IN THE P53 PROTEIN WITH PARVOVIRUSES” (UNIVERSIDAD AUTÓNOMA DE MADRID, priority 2018, published 2023).

Key:
Assay type in all cases: cell-based, human
[1] = tested on: U87-MG glioblastoma cells; test: MVM infection markers (NS1, Pp53-S15, vDNA) by IF-confocal, Southern and western blot in U87-MG
Experimental: Immunofluorescence analyses were performed on neurospheres of hGSCs (human glioblastoma stem cells) and established adherent cell lines as follows: • Neurosphere staining. The cell spheres were fixed for 30 minutes with paraformaldehyde (PFA) 4%, then permeabilized for 10 minutes at room temperature with 0.1% Triton X-100 (Merck) in PBS, and blocked by incubating 20 minutes with 0.1% Triton X-100 and 10% fetal bovine serum (Sigma) in PBS. Neurospheres were incubated in the same buffer with the primary antibodies indicated in the figures for 1 h at 37° C., and finished by four five-minute PBS washes. Then neurospheres were incubated with the secondary antibodies at appropriate concentrations in the same buffer and conditions, and finally stained with DAPI for half an hour and mounted embedding at 37° C. in 0.8% agarose-LGT prepared in PBS. Embedded neurospheres were applied as 200 microliters drops on pre-cooled large (2×3 cm) coverslips and stored at 4° C. in the dark until confocal analysis. • Adherent cells. The cell lines were seeded on coverslips, treated as indicated in the figures and fixed for 10 minutes with 4% paraformaldehyde. Staining with antibodies was carried out essentially as described above for the neurospheres. Cells were mounted with Fluoromount G (Southern Biotech). Preparations were kept at least 16 h at room temperature in the dark before observation under a microscope. • Analysis of virus replication by FISH. This method was used to determine the degree of replication of the parvovirus MVM genome. The probe used was a mixture of three DNA oligonucleotides labeled at the 3′ terminal end with the Cy5 fluorophore, and complementary to different sequences of the MVM genome. […] The images were processed with Adobe Photoshop CS5 programs (Adobe Systems Incorporated) and ImageJ/FIJI (http://rsb.info.nih.gov/ij/) taking the same samples as a zero-signal reference without antibodies (auto-fluorescence control), or only with secondary antibodies. […]

[2] = tested on: U373-MG glioblastoma cells; test: Clonogenic analysis of cell viability (colony formation) in U373-MG; settings: single agent: CisPt 1-hour treatment, or MVMp singly inoculated at two MOI
Experimental: Consequently, the CisPt dose effect on different MVMp life cycle parameters, and on p53 phosphorylation and functional signaling in U373-MG cells, was analyzed. For this, the U373-MG cells treated with Cis-Platinum doses (10-120 microM) for 1 hour at 37° C. were inoculated with MVMp to allow adsorption, and then of the infection was allowed to progress for 24 hours. Cells were sampled and processed for virus macromolecular markers and Pp53-S15 determinations.
We finally analyzed whether these MVM/CisPt cooperative effects impact cancer cells viability, and therefore whether they imply a therapeutic significance.

[3] = tested on: U373-MG glioblastoma cells; test: MVM infection markers (NS1, Pp53-S15, vDNA) by cytometry, IF-confocal and western blot in U373-MG
Text: In all the experiments, a minimum of 30,000 events per sample were acquired in a FACSCantoII cytometer (BD Biosciences), which were pre-selected by a region based on their size and complexity (FSC and SSC parameters, respectively) in order to exclude cellular debris and other contaminating particles. The CellQuest software (BD Biosciences) was used to acquire the events and the FlowJo software (Tree Star) was used to analyze the data. The cell cycle analysis was in accordance to [Gil-Ranedo, J., Hernando, E., Riolobos, L., Dominguez, C., Kann, M, and José M Almendral. 2015. The mammalian cell cycle regulates nuclear parvovirus capsid assembly. PlosPathogens, 11; 11 (6): e1004920]. For staining, cells were permeabilized with PBS+0.1% triton X-100 for 10 minutes at room temperature, then blocked with the same buffer supplemented with 1% FCS for 20 minutes. Cells were re-suspended in PBS (pH 7.2)+0.5% BSA and the primary antibodies indicated in the figures were added followed by 1 h stirring at 37° C. Cells were washed in PBS and the secondary antibodies were added and incubated similarly. Two further washes in PBS were made before analyzing the samples in the flow cytometer.
Immunofluorescence analyses were performed on neurospheres of hGSCs (human glioblastoma stem cells) and established adherent cell lines as follows: • Neurosphere staining. The cell spheres were fixed for 30 minutes with paraformaldehyde (PFA) 4%, then permeabilized for 10 minutes at room temperature with 0.1% Triton X-100 (Merck) in PBS, and blocked by incubating 20 minutes with 0.1% Triton X-100 and 10% fetal bovine serum (Sigma) in PBS. Neurospheres were incubated in the same buffer with the primary antibodies indicated in the figures for 1 h at 37° C., and finished by four five-minute PBS washes. Then neurospheres were incubated with the secondary antibodies at appropriate concentrations in the same buffer and conditions, and finally stained with DAPI for half an hour and mounted embedding at 37° C. in 0.8% agarose-LGT prepared in PBS. Embedded neurospheres were applied as 200 microliters drops on pre-cooled large (2×3 cm) coverslips and stored at 4° C. in the dark until confocal analysis. • Adherent cells. The cell lines were seeded on coverslips, treated as indicated in the figures and fixed for 10 minutes with 4% paraformaldehyde. Staining with antibodies was carried out essentially as described above for the neurospheres. Cells were mounted with Fluoromount G (Southern Biotech). Preparations were kept at least 16 h at room temperature in the dark before observation under a microscope. • Analysis of virus replication by FISH. This method was used to determine the degree of replication of the parvovirus MVM genome. The probe used was a mixture of three DNA oligonucleotides labeled at the 3′ terminal end with the Cy5 fluorophore, and complementary to different sequences of the MVM genome. Cells adhered and fixed in 4% paraformaldehyde were permeabilized for 10 minutes with 0.2% Triton X-100 (Merck) in PBS and equilibrated for 5 minutes at room temperature in 2×SSC (0.3 M NaCl; 30 mM Na2C6H5O7, pH 7) supplemented with 15% formamide. Hybridization was with 500 ng/ml of each oligonucleotide in FISH buffer (5×SSC, 0.5% SDS, 10% dextran sulfate, 50% formamide) for 2.5 hours at 37° C. The preparations were washed twice with 2×SSC, 15% formamide for 30 minutes. […]

Row | Structure (SMILES) | p53 phosphorylation at the Ser15 residue ([1]; uninfected U87-MG cells, IF-confocal) | cell viability (clonogenic assay) [2] | NS1 levels by western blot ([3]; MVMp infected U373-MG, 5 to 20 microM CisPt) | virus genome (vDNA) replication levels ([3]; MVMp infected U373-MG, IF-confocal, CisPt dose effect) | percentage of cells expressing NS1 and level of NS1 expression ([3]; MVMp infected U373MG, flow cytometry, combined treatment with single dose of CD versus simple infection) | Pp53-S15 levels ([3]; U373-MG, IF-confocal, 5-20 microM Cis-Pt, 1 hour, then MVMp 24 hours) | Pp53-S15 induction ([3]; U373MG, flow cytometry, single dose, also in treated non-infected cells) | percentage of NS1+ cells after drug pre-treatment ([1]; U87-MG treated with different Cis-Pt doses prior to MVMp infection) | MVMp genome replication (vDNA) after drug pre-treatment ([1]; U87-MG, Cis-Pt dose effect, MVMp infection)
1 | O=c1[nH]cc(F)c(=O)[nH]1 [5FU, 5-fluorouracil] | substantially increased | – | – | – | – | – | – | – | –
2 | N.N.[Cl][Pt][Cl] [CisPt, Cisplatin] | – | progressively decreased the viability | increasing NS1 levels | benefitted from 10 microM CisPt but not from higher doses | highest increase | significant increase | generalized Pp53-S15 induction in all cells | very significant increase | benefitted from the 10 or 20 microM Cis-Pt treatment, but not from higher doses
